Results: patent publication US12180207B2 (ARRAY BIOPHARMA INC., priority 2018, dated 2024)
pIC50: −log10 of the molar value.

What follows are molecules tested against HEK-293 cells transfected with dox-inducible human wild type FGFR3 (Homo sapiens (Human), UniProt P22607) (assay: FGFR3 pFGFR cell assay (ELISA)). Details: HEK-293 dox-inducible FGFR3, 1 hour compound, 100 ng/ml FGF-acidic.
Format: cell-based
Procedure, shortened: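 Doxycycline-induced (1 μg/ml) HEK-293 cells expressing wild-type human FGFR3, treated 1 h with compound (1:3 series, top final 5 μM), then stimulated 5 min with 100 ng/ml FGF-acidic. Phospho-FGFR3 measured by ELISA (total FGFR3 capture, phosphotyrosine detection, OD 450 nm); IC50 from 4-parameter fit of POC values.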

Sequence of HEK-293 cells transfected with dox-inducible human wild type FGFR3 (P22607 23-806): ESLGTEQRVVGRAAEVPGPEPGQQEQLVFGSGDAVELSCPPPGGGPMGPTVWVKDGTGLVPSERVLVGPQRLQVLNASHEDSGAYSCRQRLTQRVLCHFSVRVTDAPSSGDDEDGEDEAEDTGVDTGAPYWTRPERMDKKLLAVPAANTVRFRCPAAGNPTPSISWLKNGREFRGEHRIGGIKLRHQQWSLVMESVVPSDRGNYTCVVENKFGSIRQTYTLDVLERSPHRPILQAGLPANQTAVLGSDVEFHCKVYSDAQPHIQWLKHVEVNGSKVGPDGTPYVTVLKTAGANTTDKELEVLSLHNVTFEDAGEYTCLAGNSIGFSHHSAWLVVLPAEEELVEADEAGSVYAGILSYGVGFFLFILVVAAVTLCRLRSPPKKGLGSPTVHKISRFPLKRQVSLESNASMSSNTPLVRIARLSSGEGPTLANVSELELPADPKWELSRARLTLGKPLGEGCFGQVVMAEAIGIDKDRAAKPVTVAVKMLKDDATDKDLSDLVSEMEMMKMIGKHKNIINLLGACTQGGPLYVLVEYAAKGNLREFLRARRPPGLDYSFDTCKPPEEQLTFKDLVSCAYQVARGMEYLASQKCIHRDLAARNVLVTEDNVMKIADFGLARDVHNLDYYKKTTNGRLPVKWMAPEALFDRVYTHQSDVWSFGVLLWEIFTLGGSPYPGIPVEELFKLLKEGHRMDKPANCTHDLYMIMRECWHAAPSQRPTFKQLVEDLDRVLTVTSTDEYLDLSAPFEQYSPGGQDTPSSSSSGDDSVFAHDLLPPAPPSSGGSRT

| pIC50 | SMILES |
| --- | --- |
| 7.14 | C=CC(=O)N1CC2(CCN(C(=O)N3CCC(n4cc(-c5cc(OC)c6c(C#N)cnn6c5)cn4)CC3)CC2)C1 [Example 6, 6-(1-(1-(2-acryloyl-2,7-diazaspiro[3.5]nonane-7-carbonyl)piperidin-4-yl)-1H-pyrazol-4-yl)-4-methoxypyrazolo[1,5-a]pyridine-3-carbonitrile] |
| 7.51 | C=CC(=O)N1CC(F)(C(=O)N2CCC(n3cc(-c4cc(OC)c5c(Cl)cnn5c4)cn3)CC2)C1 [Example 121, 1-(3-(4-(4-(3-chloro-4-methoxypyrazolo[1,5-a]pyridin-6-yl)-1H-pyrazol-1-yl)piperidine-1-carbonyl)-3-fluoroazetidin-1-yl)prop-2-en-1-one] |
| 7.82 | C=CC(=O)N1CC(C(=O)N2CCC(n3cc(-c4cc(-c5ccccc5F)c5c(C#N)cnn5c4)cn3)CC2)C1 [Example 131, 6-(1-(1-(1-acryloylazetidine-3-carbonyl)piperidin-4-yl)-1H-pyrazol-4-yl)-4-(2-fluorophenyl)pyrazolo[1,5-a]pyridine-3-carbonitrile] |
| 7.24 | C=CC(=O)N1CC(C)(C(=O)N2CCC(n3cc(-c4cc(OC)c5c(Cl)cnn5c4)cn3)CC2)C1 [Example 123, 1-(3-(4-(4-(3-chloro-4-methoxypyrazolo[1,5-a]pyridin-6-yl)-1H-pyrazol-1-yl)piperidine-1-carbonyl)-3-methylazetidin-1-yl)prop-2-en-1-one] |

| SMILES | pIC50 |
| --- | --- |
| C=CC(=O)N1CC(C(=O)N2CCC(n3cc(-c4cc(OC5CCC5)c5c(C#N)cnn5c4)cn3)CC2)C1 [Example 125, 6-(1-(1-(1-acryloylazetidine-3-carbonyl)piperidin-4-yl)-1H-pyrazol-4-yl)-4-cyclobutoxypyrazolo[1,5-a]pyridine-3-carbonitrile] | 8.05 |

Each molecule was assayed against HEK-293 cells transfected with dox-inducible human wild type FGFR2 (Homo sapiens (Human), UniProt P21802) (assay: FGFR2 pFGFR cell assay (ELISA)). Details: HEK-293 dox-inducible FGFR2, 1 hour compound, 30 ng/ml FGF-acidic.
Format: cell-based
Method: FGFR2 pFGFR Cell Assay: • HEK-293 cells transfected with dox-inducible human wild type FGFR2 (SEQ ID NO: 3) were plated in a collagen or poly-D-lysine coated 96 well flat bottom plates at 4×10^5 cells/well in complete DMEM medium containing 10% FBS and 1 μg/ml doxycycline and allowed to attach for 24 h at 37° C., 5% CO2. Cells were treated with compound using 1:3 serial dilutions with a maximum final concentration of 5 μM. Compound was incubated on cells for 1 hour at 37° C., 5% CO2. Cells were then stimulated with a final concentration of 30 ng/ml human FGF-acidic (R&D Systems Cat number 232-FA/CF) for 5 minutes at 37° C., 5% CO2. Medium was removed and cells were lysed with lysis buffer containing phosphatase and protease inhibitors. Phospho FGFR2 was measured by ELISA (R&D Systems cat. no. DYC684). The ELISA captures total FGFR2 and detects total phospho tyrosine. Optical density was measured for each well using a Versamax reader at a wavelength of 450 nm. 100 POC was determined using no test compounds and 0 POC was determined using a control compound. The POC values were fit to a 4-parameter logistic curve as a function of the concentration of the compound, and the IC50 value is the point where the curve crosses 50 POC.

Sequence of HEK-293 cells transfected with dox-inducible human wild type FGFR2 (P21802 22-821): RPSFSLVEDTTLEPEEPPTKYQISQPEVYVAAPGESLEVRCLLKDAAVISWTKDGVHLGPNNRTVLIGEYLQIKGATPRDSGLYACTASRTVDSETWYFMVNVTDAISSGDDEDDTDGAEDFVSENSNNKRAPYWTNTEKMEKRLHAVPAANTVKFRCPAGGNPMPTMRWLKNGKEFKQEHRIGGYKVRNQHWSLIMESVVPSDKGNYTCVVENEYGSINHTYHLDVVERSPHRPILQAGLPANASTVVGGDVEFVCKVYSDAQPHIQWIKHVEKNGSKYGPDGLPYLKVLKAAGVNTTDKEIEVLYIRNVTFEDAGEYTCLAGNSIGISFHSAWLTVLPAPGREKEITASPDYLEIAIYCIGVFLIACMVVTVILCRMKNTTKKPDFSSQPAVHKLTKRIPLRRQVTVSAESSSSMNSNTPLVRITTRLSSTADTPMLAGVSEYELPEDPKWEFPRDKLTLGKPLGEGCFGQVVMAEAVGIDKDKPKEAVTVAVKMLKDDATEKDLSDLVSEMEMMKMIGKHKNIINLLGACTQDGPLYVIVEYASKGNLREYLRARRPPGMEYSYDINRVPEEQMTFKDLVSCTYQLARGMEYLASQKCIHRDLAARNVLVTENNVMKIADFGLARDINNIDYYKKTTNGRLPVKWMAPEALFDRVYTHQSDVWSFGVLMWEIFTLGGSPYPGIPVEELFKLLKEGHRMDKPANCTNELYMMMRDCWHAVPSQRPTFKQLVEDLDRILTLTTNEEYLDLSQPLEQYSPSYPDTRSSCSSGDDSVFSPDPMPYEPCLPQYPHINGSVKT

| pIC50 | SMILES |
| --- | --- |
| 7.08 | C=CC(=O)N1CCN(C(=O)N2CCC(n3cc(-c4cc(OC)c5c(C#N)cnn5c4)cn3)CC2)C[C@@H]1CC#N [Example 135, (S)-6-(1-(1-(4-acryloyl-3-(cyanomethyl)piperazine-1-carbonyl)piperidin-4-yl)-1H-pyrazol-4-yl)-4-methoxypyrazolo[1,5-a]pyridine-3-carbonitrile] |
| 6.57 | C=CC(=O)N1CC(CN2CCC(n3ncc(-c4cc(OC)c5c(Cl)cnn5c4)c3C)CC2)C1 [Example 118, 1-(3-((4-(4-(3-chloro-4-methoxypyrazolo[1,5-a]pyridin-6-yl)-5-methyl-1H-pyrazol-1-yl)piperidin-1-yl)methyl)azetidin-1-yl)prop-2-en-1-one] |
| 6.89 | C=CC(=O)N1CC(C(=O)N2CCC3(CC2)CN(c2ccc(-c4cc(OC)c5c(C#N)cnn5c4)cn2)C3)C1 [Example 102, 6-(6-(7-(1-acryloylazetidine-3-carbonyl)-2,7-diazaspiro[3.5]nonan-2-yl)pyridin-3-yl)-4-methoxypyrazolo[1,5-a]pyridine-3-carbonitrile] |
| 6.58 | COc1cc(-c2cnn(C3CCN(C(=O)C4(OC)CN(C(=O)/C=C/CN(C)C)C4)CC3)c2C)cn2ncc(Cl)c12 [Example 171, (E)-1-(3-(4-(4-(3-chloro-4-methoxypyrazolo [1,5-a]pyridin-6-yl)-5-methyl-1H-pyrazol-1-yl)piperidine-1-carbonyl)-3-methoxyazetidin-1-yl)-4-(dimethylamino)but-2-en-1-one] |
| 6.53 | COc1cc(-c2cnn(C3CCN(C(=O)C4CN(C(=O)/C=C/CCl)C4)CC3)c2)cn2ncc(C#N)c12 [Example 181, (E)-6-(1-(1-(1-(4-chlorobut-2-enoyl)azetidine-3-carbonyl)piperidin-4-yl)-1H-pyrazol-4-yl)-4-methoxypyrazolo[1,5-a]pyridine-3-carbonitrile] |
| 6.77 | COc1cc(-c2cnn(C3CCN(C(=O)C4(F)CN(C(=O)/C=C/CN(C)C)C4)CC3)c2C)cn2ncc(Cl)c12 [Example 170, (E)-1-(3-(4-(4-(3-chloro-4-methoxypyrazolo [1,5-a]pyridin-6-yl)-5-methyl-1H-pyrazol-1-yl)piperidine-1-carbonyl)-3-fluoroazetidin-1-yl)-4-(dimethylamino)but-2-en-1-one] |
| 5.93 | COc1cc(-c2nnn(C3CCN(C(=O)C4(F)CN(C(=O)/C=C/CN(C)C)C4)CC3)c2C)cn2ncc(C#N)c12 [Example 164, (E)-6-(1-(1-(1-(4-(dimethylamino)but-2-enoyl)-3-fluoroazetidine-3-carbonyl)piperidin-4-yl)-5-methyl-1H-1,2,3-triazol-4-yl)-4-methoxypyrazolo [1,5-a]pyridine-3-carbonitrile] |
| 7.85 | C=CC(=O)N1CCC(n2cc(-c3cc(OC)c4c(C#N)cnn4c3)cn2)CC1 [Example 11, 6-(1-(1-acryloylpiperidin-4-yl)-1H-pyrazol-4-yl)-4-methoxypyrazolo[1,5-a]pyridine-3-carbonitrile] |
| 6.55 | C=CC(=O)N1CC(OC)(C(=O)N2CCC(n3ncc(-c4cc(OC)c5c(Cl)cnn5c4)c3C)CC2)C1 [Example 117, 1-(3-(4-(4-(3-chloro-4-methoxypyrazolo[1,5-a]pyridin-6-yl)-5-methyl-1H-pyrazol-1-yl)piperidine-1-carbonyl)-3-methoxyazetidin-1-yl)prop-2-en-1-one] |
| 6.63 | C=CC(=O)N1CC(CN2C[C@H]3C[C@@H]2CN3c2ccc(-c3cc(OC)c4c(C#N)cnn4c3)cn2)C1 [Example 108, 6-(6-((1R,4R)-5-((1-acryloylazetidin-3-yl)methyl)-2,5-diazabicyclo[2.2.1]heptan-2-yl)pyridin-3-yl)-4-methoxypyrazolo[1,5-a]pyridine-3-carbonitrile] |
| 6.49 | C=CC(=O)N1CC(CN2CCC(n3ncc(-c4cc(OC)c5c(Cl)cnn5c4)c3C)CC2)(OC)C1 [Example 119, 1-(3-((4-(4-(3-chloro-4-methoxypyrazolo[1,5-a]pyridin-6-yl)-5-methyl-1H-pyrazol-1-yl)piperidin-1-yl)methyl)-3-methoxyazetidin-1-yl)prop-2-en-1-one] |
| 6.27 | COc1cc(-c2c(C)nn(C3CCN(C(=O)C4(F)CN(C(=O)/C=C/CN(C)C)C4)CC3)c2C)cn2ncc(C#N)c12 [Example 161, (E)-6-(1-(1-(1-(4-(dimethylamino)but-2-enoyl)-3-fluoroazetidine-3-carbonyl)piperidin-4-yl)-3,5-dimethyl-1H-pyrazol-4-yl)-4-methoxypyrazolo [1,5-a]pyridine-3-carbonitrile] |
| 6.73 | COc1cc(-c2cnn(C3CCN(C(=O)C4(F)CN(C(=O)/C=C/CN(C)C)C4)CC3)c2C)cn2ncc(C#N)c12 [Example 153, (E)-6-(1-(1-(1-(4-(dimethylamino)but-2-enoyl)-3-fluoroazetidine-3-carbonyl)piperidin-4-yl)-5-methyl-1H-pyrazol-4-yl)-4-methoxypyrazolo [1,5-a]pyridine-3-carbonitrile] |
| 6.35 | COc1cc(-c2cnn(C3CCN(CC4(OC)CN(C(=O)/C=C/CN(C)C)C4)CC3)c2C)cn2ncc(C#N)c12 [Example 159, (E)-6-(1-(1-((1-(4-(dimethylamino)but-2-enoyl)-3-methoxyazetidin-3-yl)methyl)piperidin-4-yl)-5-methyl-1H-pyrazol-4-yl)-4-methoxypyrazolo [1,5-a]pyridine-3-carbonitrile] |
| 6.61 | CC#CC(=O)N1CC(F)(C(=O)N2CCC(n3ncc(-c4cc(OC)c5c(C#N)cnn5c4)c3C)CC2)C1 [Example 156, 6-(1-(1-(1-(but-2-ynoyl)-3-fluoroazetidine-3-carbonyl)piperidin-4-yl)-5-methyl-1H-pyrazol-4-yl)-4-methoxypyrazolo [1,5-a]pyridine-3-carbonitrile] |
